Assay results published in patent publication US20050049197A1, “Induction of immune response against desired determinants” (Epimmune Inc., priority 1993, published 2005).

Columns and labels:
DR1 = DR1 (Homo sapiens, UniProt P01903+P01911, A100R/D57E/F55L/F60I/F76Y/I96L/L162R/M171V/P40L/Q125E/R42F/V115G/Y59C); test: biochemical; assay type: binding
DR4w4 = DR4w4 (Homo sapiens, UniProt P01903+P01911, A100K/A169T/F76Y/I96L/K127E/L162R/M171V/N62H/P40V/Q125Y/R42H/S133A/S149N/S66Y/V115G/V209L/W38E); test: biochemical; assay type: binding
DR2w2b = test system: DR2w2b; parameters: species or system human; conditions: read-out: Binding Activity DR2wB2, IC50
[1] = test system: PBMC from normal individuals; test: In vitro T cell proliferative responses of human PBMC ([3H]thymidine incorporation); assay type: cell-based; conditions: for AVERAGE S.I. / AVERAGE ΔMAX CPM: average of 5 donors; for X144 (Δmax cpm) / X144 S.I.: donor X144; for X162 (Δmax cpm) / X162 S.I.: donor X162; for X349 (Δmax cpm) / X349 S.I.: donor X349; for X372 (Δmax cpm) / X372 S.I.: donor X372; for X460 (Δmax cpm) / X460 S.I.: donor X460
DQ3.1 = test system: DQ3.1; parameters: species or system human; conditions: read-out: Binding Activity DQ3.1, IC50
DR5 = test system: DR5; parameters: species or system human; conditions: read-out: Binding Activity DR5, IC50

CC(C)C[C@H](NC(=O)[C@@H](NC(=O)[C@H](Cc1c[nH]c2ccccc12)NC(=O)[C@H](C)NC(=O)[C@H](C)NC(=O)[C@@H](NC(=O)[C@H](CC1CCCCC1)NC(=O)[C@H](CCCCN)NC(=O)[C@@H](C)N)C(C)C)[C@@H](C)O)C(=O)N[C@@H](CCCCN)C(=O)N[C@@H](C)C(=O)N[C@@H](C)C(=O)N[C@H](C)C(N)=O [965.10]
IC50 (DR1): 1.2 nM
IC50 (DR4w4): 2.8 nM
IC50 (DR2w2b): 5.6 nM
AVERAGE S.I. ([1]; 2nd Stimulation): 3.9
AVERAGE ΔMAX CPM ([1]; 2nd Stimulation): 25767 cpm
X144 (Δmax cpm) ([1]; 2nd Stimulation): 11663 cpm
X144 S.I. ([1]; 2nd Stimulation): 1.8
X162 (Δmax cpm) ([1]; 2nd Stimulation): 20693 cpm
X162 S.I. ([1]; 2nd Stimulation): 7.9
X349 (Δmax cpm) ([1]; 2nd Stimulation): 22133 cpm
X349 S.I. ([1]; 2nd Stimulation): 3.5
X372 (Δmax cpm) ([1]; 2nd Stimulation): 44414 cpm
X372 S.I. ([1]; 2nd Stimulation): 3.2
X460 (Δmax cpm) ([1]; 2nd Stimulation): 29933 cpm
X460 S.I. ([1]; 2nd Stimulation): 3.3
AVERAGE S.I. ([1]; 3rd Stimulation): 11.5
AVERAGE ΔMAX CPM ([1]; 3rd Stimulation): 31002 cpm
X144 (Δmax cpm) ([1]; 3rd Stimulation): 33159 cpm
X144 S.I. ([1]; 3rd Stimulation): 14
X162 (Δmax cpm) ([1]; 3rd Stimulation): 34548 cpm
X162 S.I. ([1]; 3rd Stimulation): 11
X349 (Δmax cpm) ([1]; 3rd Stimulation): 38931 cpm
X349 S.I. ([1]; 3rd Stimulation): 3.5
X372 (Δmax cpm) ([1]; 3rd Stimulation): 36995 cpm
X372 S.I. ([1]; 3rd Stimulation): 15
X460 (Δmax cpm) ([1]; 3rd Stimulation): 11376 cpm
X460 S.I. ([1]; 3rd Stimulation): 15
IC50 (DQ3.1): 25 nM
IC50 (DR5): 11.1 nM
